Data as given in patent US8790678B2, “Biomaterials having nanoscale layers and coatings” (Washington University, priority 2006, dated 2014).
“And” between values parts separate entries of the source, which are not always exact repeats. Equal entries are not always repeated.

How the values were obtained:
[1] = test system: HAEC; experiment: Individual cell migration of HAEC in plasma; assay type: cell-based, human
Description: Individual Cell Migration of HAEC—Passage 6 HAEC were subcultured and incubated in growth medium for 3 days and then were serum-starved for 12 h. HAEC cell densities were less than 100 cell/mm^2 so that cell-cell contacts were unlikely during the duration of the experiment. Any cell that contacted another cell was excluded from data analysis. Plasma was buffered with 20 mM HEPES, pH 7.4, and added to the well. Time-lapse microscopy was used to track the cells every 4 min for 12 h with a 10× objective. The migration speed of individual cells was analyzed using ImageJ software (NIH).

[2] = test system: plasma lipoproteins; conditions: in blood; cited from earlier work
[3] = target: S1P1 (Homo sapiens, UniProt P21453); conditions: Lee et al., Science (1998); read-out: KD for S1P/S1P1 binding; cited from earlier work
Sequence of S1P1 (P21453 whole entry, species assumed): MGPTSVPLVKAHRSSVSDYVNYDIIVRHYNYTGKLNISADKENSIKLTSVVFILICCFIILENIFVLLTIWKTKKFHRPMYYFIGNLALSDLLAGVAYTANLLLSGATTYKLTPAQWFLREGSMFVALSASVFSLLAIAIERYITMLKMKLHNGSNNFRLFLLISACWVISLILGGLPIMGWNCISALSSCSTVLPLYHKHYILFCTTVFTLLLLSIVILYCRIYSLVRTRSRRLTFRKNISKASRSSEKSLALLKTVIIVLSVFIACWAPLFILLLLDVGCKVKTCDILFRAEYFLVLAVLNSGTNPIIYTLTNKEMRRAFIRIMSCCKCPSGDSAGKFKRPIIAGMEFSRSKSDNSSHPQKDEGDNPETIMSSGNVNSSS

[4] = test system: Human aortic endothelial cells; experiment: Single cell tracking on RGD/PEG-OVS/albumin hydrogels under fluid shear stress; assay type: cell-based; conditions: for endothelial cell migration speed: 100 nM S1P
Description: Human aortic endothelial cells seeded onto RGD/PEG-OVS/albumin hydrogels at 1000-2000 cells/cm^2 were tracked under 20 dynes/cm^2 fluid shear stress in HEPES-buffered low serum medium (HEPES-LSM; MCDB 131 with 0.1% FBS, 1% ABAM, […] HEPES, pH 7.4) containing 0.4% FAF-BSA for 12 h.
Time lapse microscopy images were obtained every 2 min for 12 h of endothelial cell migration on the surface of RGD containing PEG hydrogels. The percent of cells remaining on the gels during the course of the experiment was recorded for each RGD concentration. The projected cell areas of all cells were determined by manually outlining the cells after 3 h under 20 dyne/cm^2 shear stress. Single endothelial cells were manually tracked for 12 h to obtain XY-coordinate data for the center of each cell. Coordinate data from every six minutes (Δt=6 min) for all cells in each experiment were saved as variables for analysis in MATLAB (The MathWorks, Natick, Mass.). At each time point i, ti=iΔt, the mean squared displacement was calculated using the overlapping interval method. The speed of each individual was calculated by dividing the root mean-square displacement for a single time interval by the tracking interval (6 min). Each cell's persistence time was determined by fitting the persistent random walk model given by Equation 1: <d^2(t)>=2S^2P[t−P(1−e^−t/P)] [1] using the calculated speed by nonlinear least squares regression analysis as previously described (Dunn 1983; Othmer, Dunbar and Alt 1988; Harms et al. 2005). Speed simply represents the total path length of a cell over time. Persistence time represents the time period between changes in the direction of movement of more than 60°. Path length is calculated as the product of speed and persistence time. Cell dispersion is the product of speed squared and persistence time. Cell areas were obtained by manually tracing cells. All data was analyzed by ANOVA Scheffe post hoc. Endothelial Response to Linear RGD Concentration—Cell Attachment Strength

[5] = test system: HUVEC; experiment: Time-lapse microscopy of endothelial cell migration on PEG-OVS/albumin/RGD hydrogels; assay type: cell-based, human
Description: Time-lapse microscopy was used to quantify endothelial cell migration speeds on PEGOVS/albumin hydrogels containing RGD peptide and preloaded with S1P. RGD peptide was added to the PEG hydrogels to promote endothelial cell adhesion and spreading on the materials. PEG-OVS (3.4 mg in 20 μL) was reacted for 30 min with acetyl-GCGYGRGDSPG-NH2 peptide [SEQ ID NO. 5], to attach the peptide to 1/20 of the vinyl sulfone groups (2.78 mM RGD peptide in the final hydrogel). The PEG hydrogels were crosslinked by reacting PEG-OVS with albumin (5.2 mg in 30 μL) premixed with S1P (5 nmol) to give a final concentration of 100 μM S1P within the crosslinked hydrogel. The resulting solution (50 μL) was pipetted into a 24-well plate and incubated at 37° C. for 24 h to allow crosslinking. HUVEC from passage 5-7 were seeded onto the gels at a concentration of 1000 cells/cm^2. After allowing the cells to spread for 6 h in complete growth medium, HEPES-buffered low serum medium (MCDB 131 with 0.1% FBS, 1% ABAM, […] HEPES, pH 7.4) containing 0.4% FAF-BSA was added to the cells. The cells were tracked using time-lapse microscopy for 12 h, recording images every two minutes. Individual cell migration speeds were analyzed manually using ImageJ to trace the path of each cell over time. […]

[6] = test system: chorioallantoic membrane (CAM); experiment: Chick chorioallantoic membrane (CAM) angiogenesis assay; assay type: in vivo, chicken; conditions: 50 ng spotted on Thermanox coverslip, two days
Description: Embryonated chicken eggs were incubated blunt-end up in a 37° C. incubator. At embryonal day 6, the top of the egg was cracked and removed using tweezers to create a 1.5 cm diameter opening. The inner shell membrane was removed, exposing the CAM. A 20 μL PEG hydrogel was then placed onto the CAM. As controls, 50 ng bFGF or 50 ng S1P were spotted onto small pieces of Thermanox coverslips (Nunc), air dried and placed onto the CAM. The eggs were sealed with parafilm and returned to the incubator. After two days of incubation, the eggs were reopened and the degree of angiogenesis was visually assessed.

[7] = test system: HUVEC; experiment: Scrape wound migration assay in platelet poor plasma or low serum medium; assay type: cell-based, human; conditions: for number of cells in the scrape wound versus plasma alone: no flow
Description: The plasma was passed through a 0.22 μm PVDF syringe filter. Plasma was aliquoted and stored at −20° C. VEGF concentration was measured with a sandwich ELISA kit (Quantikine Human VEGF kit, R&D Systems, Minneapolis, Minn.). The concentration of VEGF was measured in plasma samples from three different donors.
After rinsing with D-PBS, LSM or plasma containing the appropriate stimulants were added to the cells. […] Cells were manually counted using ImagePro Express software (Media Cybernetics, Silver Spring, Md.).
A 2.54 cm diameter Teflon disk was mounted onto the spindle of each motor so that the bottom of the disk was 0.5 cm above the cell monolayer. A total volume of 6 mL of medium was added per well. The motors were driven using a 1.5 V power source resulting in a rotation rate of 150±5 rad/s. […] Cell densities were counted at four locations, each between 0.8 and 1.2 cm away from the center of the well.

[8] = test system: S1P1 mRNA; experiment: Quantitative real time RT-PCR of S1P1 mRNA; assay type: cell-based, human; conditions: 10 ng/mL VEGF; HUVEC cultured in plasma; 24 h
Source text: Quantitative Real Time Reverse Transcription PCR-In experiments with fluid flow, cell lysates were harvested only in the region of relevant shear stress (0.8-1.2 cm from the center of the well). For conditions without fluid flow, cell lysates were collected from the entire well. Total cell RNA was isolated using an RNeasy kit (Qiagen). Amplification of an 81-bp fragment of S1P1 using primers (5'-[…] NO:7] and 5'-[…] Inc, Coralville, Iowa) and probe (S1P1 Probe: [NT] ID NO:9], IDT Inc) was performed using the Quantitect qRT-PCR kit (Qiagen). The amount of S1P1 or β-Actin RNA was quantified by comparing data to a standard curve generated using the Taqman human endogenous β-actin control kit (Applied Biosystems). The β-actin control kit contains 333 copies of β-actin DNA per ng of total RNA. Knockdown of S1P1 with siRNA-Passage 3 HUVEC at 30-50% confluence were transfected with 100 nM siRNA targeting S1P1 (Silencer validated siRNA against S1P1, Ambion, Austin, Tex.) in antibiotic-free growth medium using Lipofectamine-2000 (Invitrogen). […] At 48 h, cells were incubated with LSM for 12 h. A negative control (Ambion, Silencer Negative Control #2) was used to test for non-specific effects on gene expression or cell survival. Quantitative real-time RT-PCR was used to determine the extent of S1P1 receptor mRNA knockdown 48 h after transfection.

[9] = S1P at 0.69 mM cyclic RGD vs 0.52 and 1.38 mM cyclic RGD without S1P
[10] = addition of 100 nM S1P, linear RGD
[11] = S1P 100 nM or VEGF 10 ng/mL added to plasma

CCCCCCCCCCCCC/C=C/[C@@H](O)[C@@H](N)COP(=O)(O)O [S1P, Sphingosine 1-phosphate]
mean cell speed versus plasma alone ([1]; 100 nM S1P added to static plasma): no difference | mean cell speed versus plasma alone ([1]; 500 and 1000 nM exogenous S1P): did not lead to a significant increase | mean cell speed versus plasma alone ([1]; S1P in plasma increased by 200 nM, p=0.023): significantly increased | circulating S1P bound by HDL [2]: about 55% | circulating S1P bound by other lipoproteins [2]: about 10% | Kd [3]: ~8 nM and 8 nM | persistence time ([4]; 100 nM S1P compared to no S1P, cyclic RGD): not significantly changed | endothelial cell migration speed ([4]; cyclic RGD hydrogels, particularly higher concentrations): significant increase in endothelial cell migration speed | endothelial cell migration speed ([4]; highest linear RGD concentrations): more than doubled | projected cell area ([4]; S1P addition, cyclic RGD, after 3 h of shear stress): No clear effect | cell dispersion [4, 9]: statistically greater | path length [4, 9]: statistically greater | cell dispersion [4, 10]: not significant | path length [4, 10]: not significant | persistence time [4, 10]: not clearly affected | mean migration speed of HUVEC ([5]; S1P delivered from preloaded PEG/albumin/RGD hydrogel (100 μM S1P in gel), without S1P 19.2±10.1): 43.8±15.7 μm/h | mean migration speed of HUVEC ([5]; culture medium containing 100 nM S1P, on PEG/albumin/RGD hydrogel): 30.2±11.8 μm/h | angiogenic response [6]: strong angiogenic responses | cell densities outside the scrape wound area between S1P levels ([7]; 0, 200, 500, and 1000 nM exogenous S1P at each time point): no significant differences | number of endothelial cells in a scrape wound versus LSM alone ([7]; 100 nM S1P in LSM, 24 h): increased the number of endothelial cells | number of cells in the scrape wound ([7]; 100 nM S1P in plasma, fluid flow): did not significantly increase | number of cells in the scrape wound versus plasma alone ([7]; 200 nM and 500 nM exogenous S1P, plasma, 24 h): statistically different from plasma alone | migration into the wound area versus plasma alone ([7]; 200 nM exogenous S1P, fluid flow, 48 h): significantly different from plasma alone | number of cells in the scrape wound versus plasma alone ([7]; 200 nM exogenous S1P, plasma, 48 h): significantly higher than plasma alone | cell density outside the scrape wound at 48 h versus 0 and 24 h ([7]; 1000 nM exogenous S1P in static culture): significantly lower cell density | number of cells in the wound area versus plasma alone ([7]; 200, 500, or 1000 nM S1P in plasma, fluid flow, 24 h): significant increases | number of cells in the scrape wound versus plasma alone [7, 11]: no differences | exogenous S1P concentration with the highest number of cells within the scrape wound ([7]; plasma, without fluid flow, 100, 200, 500, 1000 nM tested): 200 nM

VEGF
S1P1 mRNA concentration versus plasma alone [8]: statistically significant increase | number of cells in the scrape wound versus plasma alone [7, 11]: no differences
